Results reported in patent US20240360177A1, “PEPTIDES WITH ANTIMICROBIAL ACTIVITIES” (priority 2021, published 2024).
≈ marks a conversion by molar mass, not a printed value. Non-standard residues stand in square brackets, D forms with d. Residues, ends and D or L forms follow the SMILES beside them. Tic = O=C(O)[C@@H]1Cc2ccccc2CN1; Aoc = NCCCCCCCC(=O)O

Legend:
C. albicans = conditions: 24 h
C. glabrata = conditions: 24 h
C. parapsilosis = conditions: 24 h
C. krusei = conditions: 24 h
C. auris = conditions: 24 h
C. tropicalis = conditions: 24 h
C. dubliniensis = conditions: 24 h
C. neoformans = conditions: 72 h
C. gattii = conditions: 72 h
Fusarium spp. = conditions: 48 h
Scedosporium spp. = conditions: 72 h
in vitro = conditions: human, EC50 cytotoxicity in HepG2, intracellular ATP assay

Structure (SMILES)	MIC C. albicans (C. albicans) [µg/mL]	MIC C. glabrata (C. glabrata) [µg/mL]	MIC C. parapsilosis (C. parapsilosis) [µg/mL]	MIC C. krusei (C. krusei) [µg/mL]	MIC C. auris (C. auris) [µg/mL]	MIC C. tropicalis (C. tropicalis) [µg/mL]	MIC C. dubliniensis (C. dubliniensis) [µg/mL]	Activity at 24 h MIC50 against Candida spp. (Candida spp.; 24 h) [µg/mL]	Activity at 24 h MIC90 against Candida spp. (Candida spp.; 24 h) [µg/mL]	Activity at 48 h MIC50 against Candida spp. (Candida spp.; 48 h) [µg/mL]	Activity at 48 h MIC90 against Candida spp. (Candida spp.; 48 h) [µg/mL]	MIC C. neoformans (C. neoformans) [µg/mL]	MIC C. gattii (C. gattii) [µg/mL]	MIC Range Fusarium spp. (Fusarium spp.) [µg/mL]	MIC Range Scedosporium spp. (Scedosporium spp.) [µg/mL]	MIC Range Lomentospora prolificans (Lomentospora prolificans) [µg/mL]	EC50 (in vitro) [µg/mL]
CC(=O)N[C@H](CCCNC(=N)N)C(=O)N[C@@H](CCCNC(=N)N)C(=O)N[C@H](CCCNC(=N)N)C(=O)NCCCCCCCC(=O)N[C@H](CCCNC(=N)N)C(=O)N[C@@H](CCCNC(=N)N)C(=O)N[C@H](CCCNC(=N)N)C(=O)NCCCCCCCC(=O)N[C@H](CCCNC(=N)N)C(=O)N[C@@H](CCCNC(=N)N)C(=O)N[C@H](CCCNC(=N)N)C(=O)N[C@@H](CCCNC(=N)N)C(=O)NCCCCCCCC(=O)N[C@H](CCCNC(=N)N)C(=O)N[C@@H](CCCNC(=N)N)C(=O)N[C@H](CCCNC(=N)N)C(=O)N[C@@H](CCCNC(=N)N)C(N)=O [SEQ ID NO: 31, CH3CONH-rRr-(Aoa)-rRr-(Aoa)-rRrR-(Aoa)-rRrR-NH2] (Ac-[dR]R[dR][Aoc][dR]R[dR][Aoc][dR]R[dR]R[Aoc][dR]R[dR]R-NH2)	1 (≈ 0.375 µM)	1 (≈ 0.375 µM)	0.25 (≈ 0.0937 µM)	0.5 (≈ 0.187 µM)	0.5 (≈ 0.187 µM)	0.5 (≈ 0.187 µM)	1 (≈ 0.375 µM)					0.5 (≈ 0.187 µM)	0.5 (≈ 0.187 µM)	0.25 to 4	0.5 to 2	2 (≈ 0.749 µM)	
CC(=O)N[C@H](CCCNC(=N)N)C(=O)N[C@@H](CCCNC(=N)N)C(=O)N[C@H](CCCNC(=N)N)C(=O)N1CCC[C@H]1C(=O)N[C@H](CCCNC(=N)N)C(=O)N[C@@H](CCCNC(=N)N)C(=O)N[C@H](CCCNC(=N)N)C(=O)N1CCC[C@H]1C(=O)N[C@H](CCCNC(=N)N)C(=O)N[C@@H](CCCNC(=N)N)C(=O)N[C@H](CCCNC(=N)N)C(=O)N[C@@H](CCCNC(=N)N)C(=O)N1CCC[C@H]1C(=O)N[C@H](CCCNC(=N)N)C(=O)N[C@@H](CCCNC(=N)N)C(=O)N[C@H](CCCNC(=N)N)C(=O)N[C@@H](CCCNC(=N)N)C(N)=O [SEQ ID NO: 55, CH3CONH-rRr-P-rRr-P-rRrR-P-rRrR-NH2] (Ac-[dR]R[dR]P[dR]R[dR]P[dR]R[dR]RP[dR]R[dR]R-NH2)	1 (≈ 0.394 µM)	0.5 (≈ 0.197 µM)	0.25 (≈ 0.0985 µM)	2 (≈ 0.788 µM)	1 (≈ 0.394 µM)	0.5 (≈ 0.197 µM)	0.5 (≈ 0.197 µM)					0.5 (≈ 0.197 µM)	1 (≈ 0.394 µM)	0.25 to 1	0.5 to 1	1 (≈ 0.394 µM)	
N=C(N)NCCC[C@@H](N)C(=O)N[C@@H](CCCNC(=N)N)C(=O)N[C@H](CCCNC(=N)N)C(=O)N[C@@H](CCCNC(=N)N)C(=O)N1CCC[C@H]1C(=O)N[C@H](CCCNC(=N)N)C(=O)N[C@@H](CCCNC(=N)N)C(=O)N[C@H](CCCNC(=N)N)C(=O)N[C@@H](CCCNC(=N)N)C(=O)N1CCC[C@H]1C(=O)N[C@H](CCCNC(=N)N)C(=O)N[C@@H](CCCNC(=N)N)C(=O)N[C@H](CCCNC(=N)N)C(=O)N1CCC[C@H]1C(=O)N[C@H](CCCNC(=N)N)C(=O)N[C@@H](CCCNC(=N)N)C(=O)N[C@H](CCCNC(=N)N)C(N)=O [SEQ ID NO: 60, rRrR-P-rRrR-P-rRr-P-rRr-NH2] (H-[dR]R[dR]RP[dR]R[dR]RP[dR]R[dR]P[dR]R[dR]-NH2)	0.25 (≈ 0.1 µM)	0.25 (≈ 0.1 µM)	0.25 (≈ 0.1 µM)	0.5 (≈ 0.2 µM)	0.5 (≈ 0.2 µM)	0.25 (≈ 0.1 µM)	0.25 (≈ 0.1 µM)										> 300
N=C(N)NCCC[C@@H](N)C(=O)N[C@@H](CCCNC(=N)N)C(=O)N[C@H](CCCNC(=N)N)C(=O)N[C@@H](CCCNC(=N)N)C(=O)N[C@H](CCCNC(=N)N)C(=O)N[C@@H](CCCNC(=N)N)C(=O)N[C@H](CCCNC(=N)N)C(=O)N1CCC[C@H]1C(=O)N[C@H](CCCNC(=N)N)C(=O)N[C@@H](CCCNC(=N)N)C(=O)N[C@H](CCCNC(=N)N)C(=O)N[C@@H](CCCNC(=N)N)C(=O)N[C@H](CCCNC(=N)N)C(=O)N[C@@H](CCCNC(=N)N)C(=O)N[C@H](CCCNC(=N)N)C(N)=O [SEQ ID NO: 62, rRrRrRr-P-rRrRrRr-NH2] (H-[dR]R[dR]R[dR]R[dR]P[dR]R[dR]R[dR]R[dR]-NH2)	0.25 (≈ 0.109 µM)	0.5 (≈ 0.217 µM)	0.25 (≈ 0.109 µM)	0.5 (≈ 0.217 µM)	2 (≈ 0.869 µM)	0.25 (≈ 0.109 µM)	0.25 (≈ 0.109 µM)	0.5	4	0.5	32						> 300

The next lines start with results.

MIC C. albicans (C. albicans) [µg/mL]	MIC C. glabrata (C. glabrata) [µg/mL]	MIC C. parapsilosis (C. parapsilosis) [µg/mL]	MIC C. krusei (C. krusei) [µg/mL]	MIC C. auris (C. auris) [µg/mL]	MIC C. tropicalis (C. tropicalis) [µg/mL]	MIC C. dubliniensis (C. dubliniensis) [µg/mL]	Activity at 24 h MIC50 against Candida spp. (Candida spp.; 24 h) [µg/mL]	Activity at 24 h MIC90 against Candida spp. (Candida spp.; 24 h) [µg/mL]	Activity at 48 h MIC50 against Candida spp. (Candida spp.; 48 h) [µg/mL]	Activity at 48 h MIC90 against Candida spp. (Candida spp.; 48 h) [µg/mL]	Structure (SMILES)	MIC C. neoformans (C. neoformans) [µg/mL]	MIC C. gattii (C. gattii) [µg/mL]	MIC Range Fusarium spp. (Fusarium spp.) [µg/mL]	MIC Range Scedosporium spp. (Scedosporium spp.) [µg/mL]	MIC Range Lomentospora prolificans (Lomentospora prolificans) [µg/mL]	EC50 (in vitro) [µg/mL]
2 (≈ 1.07 µM)	1 (≈ 0.535 µM)	0.25 (≈ 0.134 µM)	2 (≈ 1.07 µM)	>32	0.5 (≈ 0.267 µM)	2 (≈ 1.07 µM)					N=C(N)NCCC[C@@H](N)C(=O)N[C@@H](CCCNC(=N)N)C(=O)N1CCC[C@H]1C(=O)N[C@H](CCCNC(=N)N)C(=O)N[C@@H](CCCNC(=N)N)C(=O)N[C@H](CCCNC(=N)N)C(=O)N1CCC[C@H]1C(=O)N[C@H](CCCNC(=N)N)C(=O)N[C@@H](CCCNC(=N)N)C(=O)N1CCC[C@H]1C(=O)N[C@H](CCCNC(=N)N)C(=O)N[C@@H](CCCNC(=N)N)C(=O)N[C@H](CCCNC(=N)N)C(N)=O [SEQ ID NO: 72, rR-P-rRr-P-rR-P-rRr-NH2] (H-[dR]RP[dR]R[dR]P[dR]RP[dR]R[dR]-NH2)	16 (≈ 8.55 µM)	4 (≈ 2.14 µM)		16 (≈ 8.55 µM)	32 (≈ 17.1 µM)	
1 (≈ 0.535 µM)	1 (≈ 0.535 µM)	0.5 (≈ 0.267 µM)	2 (≈ 1.07 µM)	>32	1 (≈ 0.535 µM)	2 (≈ 1.07 µM)					N=C(N)NCCC[C@@H](N)C(=O)N[C@@H](CCCNC(=N)N)C(=O)N1CCC[C@H]1C(=O)N[C@H](CCCNC(=N)N)C(=O)N[C@@H](CCCNC(=N)N)C(=O)N1CCC[C@H]1C(=O)N[C@H](CCCNC(=N)N)C(=O)N[C@@H](CCCNC(=N)N)C(=O)N[C@H](CCCNC(=N)N)C(=O)N1CCC[C@H]1C(=O)N[C@H](CCCNC(=N)N)C(=O)N[C@@H](CCCNC(=N)N)C(=O)N[C@H](CCCNC(=N)N)C(N)=O [SEQ ID NO: 73, rR-P-rR-P-rRr-P-rRr-NH2] (H-[dR]RP[dR]RP[dR]R[dR]P[dR]R[dR]-NH2)	8 (≈ 4.28 µM)	2 (≈ 1.07 µM)		8 to 16	32 (≈ 17.1 µM)	
0.5 (≈ 0.186 µM)	0.5 (≈ 0.186 µM)	0.5 (≈ 0.186 µM)	1 (≈ 0.373 µM)	0.5 (≈ 0.186 µM)	0.5 (≈ 0.186 µM)	0.5 (≈ 0.186 µM)					N=C(N)NCCC[C@@H](N)C(=O)N[C@@H](CCCNC(=N)N)C(=O)N[C@H](CCCNC(=N)N)C(=O)N1Cc2ccccc2C[C@H]1C(=O)N[C@H](CCCNC(=N)N)C(=O)N[C@@H](CCCNC(=N)N)C(=O)N[C@H](CCCNC(=N)N)C(=O)N1Cc2ccccc2C[C@H]1C(=O)N[C@H](CCCNC(=N)N)C(=O)N[C@@H](CCCNC(=N)N)C(=O)N[C@H](CCCNC(=N)N)C(=O)N[C@@H](CCCNC(=N)N)C(=O)N1Cc2ccccc2C[C@H]1C(=O)N[C@H](CCCNC(=N)N)C(=O)N[C@@H](CCCNC(=N)N)C(=O)N[C@H](CCCNC(=N)N)C(=O)N[C@@H](CCCNC(=N)N)C(N)=O [SEQ ID NO: 76, rRr-(Tic)-rRr-(Tic)-rRrR-(Tic)-rRrR-NH2] (H-[dR]R[dR][Tic][dR]R[dR][Tic][dR]R[dR]R[Tic][dR]R[dR]R-NH2)						139 (≈ 51.7 µM)
